Measured values: ChEMBL document CHEMBL1201862, “PubChem BioAssay data set” (2004)
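Dose response: 5 concentrations. Exposure: 48 h. Format: 96-well plates. Endpoint: linear interpolation; highest concentration if not reached. Here, GI50 denotes the concentration required for 50% inhibition of growth.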 The source made the active and inactive calls. Cut-off read from the data, not from the text of the source: active = GI50 up to about 1.1 µM and inactive = higher.

Columns and labels:
Test in all cases: NCI anticancer screen, dose series, 48 h
NCI/ADR-RES = test system: NCI/ADR-RES
HOP-18 = test system: HOP-18
A498 = test system: A498
XF498 = test system: XF498
SF-268 = test system: SF-268
HOP-62 = test system: HOP-62
HL-60 = test system: HL-60
HT-29 = test system: HT-29
SF-539 = test system: SF-539
K562 = test system: K562
HCT-116 = test system: HCT-116
HCC 2998 = test system: HCC 2998
SN12C = test system: SN12C
SNB-78 = test system: SNB-78
KM-20L2 = test system: KM-20L2

Compound	GI50 (NCI/ADR-RES)	GI50 (HOP-18)	GI50 (A498)	GI50 (XF498)	GI50 (SF-268)	GI50 (HOP-62)	GI50 (HL-60)	GI50 (HT-29)	GI50 (SF-539)	GI50 (K562)	GI50 (HCT-116)	GI50 (HCC 2998)	GI50 (SN12C)	GI50 (SNB-78)	GI50 (KM-20L2)
COc1ccc2[nH]cc(/C=C(/C)c3ccncc3)c2c1	2.94 µM (inactive)	> 100 µM (inactive)	5.07 µM (inactive)	10.7 µM (inactive)	11.1 µM (inactive)	7.64 µM (inactive)	1.44 µM (inactive)	3.25 µM (inactive)	8.36 µM (inactive)	2.98 µM (inactive)	4.15 µM (inactive)	8.24 µM (inactive)	8.59 µM (inactive)	–	–
NNC(=O)/C(NC(=O)c1ccccc1)=C(\N)c1cccc([N+](=O)[O-])c1	–	> 100 µM (inactive)	> 100 µM (inactive)	> 100 µM (inactive)	> 100 µM (inactive)	> 100 µM (inactive)	> 100 µM (inactive)	> 100 µM (inactive)	> 100 µM (inactive)	> 100 µM (inactive)	> 100 µM (inactive)	> 100 µM (inactive)	> 100 µM (inactive)	> 100 µM (inactive)	–
CN(C)c1ccc(/C=C/C(=O)C(C)(C)C)cc1Br	–	> 100 µM (inactive)	41.1 µM (inactive)	15 µM (inactive)	20.3 µM (inactive)	63.5 µM (inactive)	–	31.8 µM (inactive)	25.1 µM (inactive)	25.2 µM (inactive)	17.7 µM (inactive)	27.4 µM (inactive)	24.9 µM (inactive)	44.2 µM (inactive)	25.6 µM (inactive)
Cc1cc(C)nc(NS(=O)(=O)c2ccc(Nc3c4ccccc4nc4c(C(=O)Nc5ccc(S(=O)(=O)Nc6cc(C)on6)cc5)cccc34)cc2)n1	–	20.4 µM (inactive)	19.2 µM (inactive)	22.5 µM (inactive)	24.2 µM (inactive)	21.2 µM (inactive)	22.8 µM (inactive)	19.9 µM (inactive)	16 µM (inactive)	23.2 µM (inactive)	16 µM (inactive)	16.8 µM (inactive)	24.5 µM (inactive)	30.9 µM (inactive)	21 µM (inactive)
COc1ccccc1/N=N/c1c(-c2ccccc2)nn(C(=O)CC(=O)Nc2ccccc2Cl)c1-c1ccccc1	–	> 100 µM (inactive)	> 100 µM (inactive)	> 100 µM (inactive)	> 100 µM (inactive)	> 100 µM (inactive)	> 100 µM (inactive)	99.3 µM (inactive)	> 100 µM (inactive)	> 100 µM (inactive)	> 100 µM (inactive)	> 100 µM (inactive)	> 100 µM (inactive)	> 100 µM (inactive)	> 100 µM (inactive)
O=C(/C=C/c1c(O)ccc2ccccc12)c1cccc2ccccc12	–	58.6 µM (inactive)	> 100 µM (inactive)	> 100 µM (inactive)	> 100 µM (inactive)	> 100 µM (inactive)	> 43.8 µM (inactive)	> 72.4 µM (inactive)	> 100 µM (inactive)	51.5 µM (inactive)	57.7 µM (inactive)	> 100 µM (inactive)	> 100 µM (inactive)	> 100 µM (inactive)	> 100 µM (inactive)
CCC1CN2CCC3(c4ccccc4)CC(C(=O)OC)=CC1C23 (stereo unspecified)	–	14.9 µM (inactive)	18.6 µM (inactive)	0.183 µM (active)	14.3 µM (inactive)	19.2 µM (inactive)	–	16.7 µM (inactive)	16.8 µM (inactive)	9.46 µM (inactive)	15.9 µM (inactive)	16.7 µM (inactive)	16.1 µM (inactive)	19.3 µM (inactive)	16.3 µM (inactive)
Cc1ccc(SC(CCC(Sc2ccc(C)cc2)Sc2ccc(C)cc2)Sc2ccc(C)cc2)cc1	–	–	> 100 µM (inactive)	> 100 µM (inactive)	> 100 µM (inactive)	> 100 µM (inactive)	> 100 µM (inactive)	–	> 100 µM (inactive)	> 100 µM (inactive)	> 100 µM (inactive)	–	> 100 µM (inactive)	> 100 µM (inactive)	> 100 µM (inactive)
C=CCCC(=O)CC(=O)OCc1ccccc1	–	> 100 µM (inactive)	> 100 µM (inactive)	> 100 µM (inactive)	> 100 µM (inactive)	> 100 µM (inactive)	> 100 µM (inactive)	> 100 µM (inactive)	> 100 µM (inactive)	> 100 µM (inactive)	> 100 µM (inactive)	> 100 µM (inactive)	> 100 µM (inactive)	> 100 µM (inactive)	> 100 µM (inactive)
CCOC(=O)C(=O)Nc1cc(Cl)ccc1Cl	–	> 100 µM (inactive)	> 100 µM (inactive)	> 100 µM (inactive)	> 100 µM (inactive)	> 100 µM (inactive)	> 100 µM (inactive)	> 100 µM (inactive)	> 100 µM (inactive)	> 100 µM (inactive)	> 100 µM (inactive)	> 100 µM (inactive)	> 100 µM (inactive)	–	> 100 µM (inactive)
CCC1=C(C(C)=O)[C@@H]2CCCCC[C@@H](C(=O)OC)C2C1=O (stereo partly specified)	–	57.9 µM (inactive)	> 100 µM (inactive)	> 100 µM (inactive)	> 100 µM (inactive)	> 100 µM (inactive)	> 100 µM (inactive)	> 100 µM (inactive)	> 100 µM (inactive)	> 100 µM (inactive)	> 100 µM (inactive)	> 100 µM (inactive)	> 100 µM (inactive)	> 100 µM (inactive)	> 100 µM (inactive)
COc1cccc2c1C(=O)c1c(O)c3c(c(O)c1C2=O)C[C@@](O)(C(C)=O)CC3S(=O)(=O)O (stereo partly specified)	–	> 100 µM (inactive)	> 100 µM (inactive)	> 100 µM (inactive)	> 100 µM (inactive)	> 100 µM (inactive)	> 100 µM (inactive)	> 100 µM (inactive)	> 100 µM (inactive)	> 100 µM (inactive)	> 100 µM (inactive)	> 100 µM (inactive)	> 100 µM (inactive)	> 94.2 µM (inactive)	> 100 µM (inactive)
CCCNC(=O)Nc1c([N+](=O)[O-])cc(C(F)(F)F)cc1[N+](=O)[O-]	–	–	> 100 µM (inactive)	35.6 µM (inactive)	> 100 µM (inactive)	> 100 µM (inactive)	24.5 µM (inactive)	37.4 µM (inactive)	71.3 µM (inactive)	47.1 µM (inactive)	25.3 µM (inactive)	–	–	82.8 µM (inactive)	26.2 µM (inactive)
COc1ccc(-c2ccc(CC(=O)O)cc2)cc1OC	–	–	> 100 µM (inactive)	20.7 µM (inactive)	> 100 µM (inactive)	95.5 µM (inactive)	> 100 µM (inactive)	> 100 µM (inactive)	–	> 100 µM (inactive)	> 100 µM (inactive)	–	> 100 µM (inactive)	> 100 µM (inactive)	> 100 µM (inactive)
CC1=C[C@]2(O)C(=O)[C@H](C)C[C@H]3[C@@H](CC[C@@](C)(O)/C=C\2C1=O)C3(C)C	–	44.9 µM (inactive)	27.4 µM (inactive)	16.3 µM (inactive)	20.7 µM (inactive)	> 49.8 µM (inactive)	> 100 µM (inactive)	28.4 µM (inactive)	22.4 µM (inactive)	> 100 µM (inactive)	17.2 µM (inactive)	30.3 µM (inactive)	20.3 µM (inactive)	26.2 µM (inactive)	14.5 µM (inactive)
